pIC50: −log10 of the molar value. Values after ≈ are worked out from the molar mass of the structure shown. Where a SMILES comes first, the peptide text is derived from it.
Legend:
[1] = biological target: T1, cell-free NADPH oxidase (human neutrophil cytosol and membranes) (Homo sapiens, UniProt P14598); test: Cell-free O2- production assay; format: biochemical
T1 construct: 10^6 cell equivalents of human neutrophil cytosol; from tissue; host or cells: human peripheral blood neutrophils (cytosol and deoxycholate-solubilized membranes)
T1 sequence (P14598 1-390): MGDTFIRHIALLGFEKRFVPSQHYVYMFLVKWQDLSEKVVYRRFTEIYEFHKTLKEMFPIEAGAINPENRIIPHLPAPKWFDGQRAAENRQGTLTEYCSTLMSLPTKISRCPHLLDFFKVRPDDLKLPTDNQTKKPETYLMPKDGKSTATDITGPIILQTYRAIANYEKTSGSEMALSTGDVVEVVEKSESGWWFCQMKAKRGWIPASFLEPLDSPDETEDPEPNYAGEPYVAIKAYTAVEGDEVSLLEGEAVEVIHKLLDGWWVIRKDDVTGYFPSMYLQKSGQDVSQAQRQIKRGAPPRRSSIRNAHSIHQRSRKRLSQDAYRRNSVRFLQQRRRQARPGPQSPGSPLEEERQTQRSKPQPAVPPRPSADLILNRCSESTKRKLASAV
Procedure: Reactions (100 μl) contained 10^6 cell equivalents of human neutrophil cytosol and 5×10^5 cell equivalents of deoxycholate-solubilized membranes prepared from human peripheral blood neutrophils. […] Control reactions contained 5 μg of superoxide dismutase. Superoxide anion generation was calculated based on superoxide dismutase-inhibitable changes in cytochrome c absorbance observed at 551 nm. The reactions were followed for 20 min. after addition of arachidonic acid, with absorbance readings taken at 1-min. intervals. […] Determinations were based on reactions performed in duplicate. • (ii) Binding assays. Neutrophils were disrupted by sonication, and unbroken cells, debris, and granules were removed by centrifuigation (13,000×g for 60 min.). Cytosol fractions were prepared by centrifugation (100,000 g for 45 min.) of the supernatants to remove residual membranes. Cytosolic proteins (15 μg in reducing buffer) were separated on a 7.5% SDS PAGE gel, transferred to PVDF membranes, and probed with biotinylated PR-39 (0.3 μM) for 2 hr. Binding between PR-39 and cytosolic proteins were visualized by a chemiluminescent streptavidin alkaline phosphatase system using an Epson scanner (Torrance, Calif.) and the NIH Image program. PR-39 was labeled with biotin hydrazide at the carboxy-terminus (Pierce Chemical Co., Rockford, Ill.) and purified by gel filtration chromatography.

recombinant p47^phox = recombinant p47^phox (Homo sapiens, UniProt P14598); test: Competitive ligand-blot binding assay
Procedure: Competitive ligand-blot assays were performed by incubating recombinant p47^phox (0.02 μM) with or without various concentrations (0.006, 0.06, and 0.6 μM) of PR-39 for 1 hr. at 37° C. and then with biotinylated PR-39 (0.06 μM) for an additional 1 hr. at 37° C. The solutions were dialyzed against ddH2O for 1 hr. at 4° C. before blotting to nitrocellulose (5 μl) and detection with a streptavidin alkaline-phosphatase detection system as described above.

[2] = biological target: T2, interaction between GST-p47^phox and recombinant p22^phox (Homo sapiens, UniProt P14598); test: Solution binding assay GST-p47phox-SH3 / recombinant p22phox; conditions: concentrations close to IC50's of the cell-free oxidase assay
T2 construct: (GST)-p47^phox-SH3 (residues 151–284) fusion protein; made in house; host or cells: p22phox fragment: baculovirus-infected cells (used as lysate)
Procedure: Methods for production of the glutathione S-transferase (GST)-p47^phox-SH3 (residues 151–284) fusion protein have been previously described (Leto et al., 1994). For solution binding assays, lysates of recombinant p22^phox protein (residues 127–195) from baculovirus-infected cells (2.5×10^4 cell equivalents per assay) were mixed with peptides and incubated for 1 hr. at 20° C. with 100 μl of GST-p47^phox bound to glutathione-Sepharose beads (15% suspension). Bound proteins were washed three times in 15 volumes of ice-cold 100 mM KCl/3 mM NaCl/3.5 mM MgCl2/0.15 mM phenylmethanesulfonyl fluoride/10 mM Pipes (pH 7.5), eluted with 1% SDS, and analyzed by SDS-PAGE followed by immunoblotting with mouse anti-p22^phox antibody (mAb 449; A. Verhoeven, Central Laboratories of the Netherlands Red Cross). Controls included blotting of recombinant p22^phox lysate (5×10^3 cell equivalents) alone (p22) and bound complexes detected without competing PR peptides (−).

[3] = biological target: 47 kDa neutrophil cytosol protein (Homo sapiens, UniProt P14598); test: Ligand-blot binding assay with biotinylated PR-39, human cytosol; conditions: biotinylated PR-39 probe
Staphylococcus aureus = test: MIC/MBC microdilution broth method; format: cell-based; conditions: Staphylococcus aureus
Procedure: (§1) Plates were incubated at 37° C. for 18 hr. […] Viable bacteria were counted. Tests were repeated on three different days. […] The results were expressed as the mean ± standard deviation. […] S. choleraesuis, ATCC 6962 was used in this experiment. […] Slides were stained with LeukoStat solutions (Fisher, Pittsburgh, Pa.). […] At least 200 neutrophils were examined. […] Tests were repeated on three different days. Results were expressed as the mean±standard deviation.

Salmonella typhimurium = test: MIC/MBC microdilution broth method; format: cell-based; conditions: Salmonella typhimurium
Procedure: as §1

Streptococcus suis = test: MIC/MBC microdilution broth method; format: cell-based; conditions: Streptococcus suis
Procedure: as §1

Escherichia coli, 25922 = test: MIC/MBC microdilution broth method; format: cell-based; conditions: Escherichia coli
Procedure: as §1

[4] = test system: rat intestinal epithelial cell line, IEC-6; format: cell-based
Procedure: Influence of PR-26 and PR-39 on intestinal epithelial cells. A nonradioactive assay based on the cellular conversion by viable cells of a tetrazolium salt into a blue formazan product was used to determine if PR-26 or PR-39 were toxic to intestinal epithelial cells. Ninety-six-well microtiter plates were seeded with the rat intestinal epithelial cell line, IEC-6, (5×10^4 cells/well) in DMEM containing 10% fetal bovine serum, 1% antibiotic/antimycotic, and […], and incubated at 37° C. for three days to achieve confluency. […] Well contents then were aspirated and monolayers were washed with medium. Medium (100 μl) and 15 μl of dye solution (Promega, Madison, Wis.) were added to each well and plates were incubated for 4 hr. at 37° C. Solubilization buffer (100 μl, Promega, Madison, Wis.) was added to each well and plates were incubated overnight to allow solubilization of the formazan crystals. Absorbance then was read at 570 nm using a microplate reader.

E. coli, ATCC 25922 = test: Gel-overlay antibacterial assay; format: cell-based, Escherichia coli; conditions: 10 μg peptide per lane, AU-PAGE gel overlaid with E. coli, 18 hr
[5] = test system: 47 kDa neutrophil cytosol protein; test: Ligand-blot binding assay with biotinylated PR-39, porcine cytosol; conditions: biotinylated PR-39 probe

## CC[C@H](C)[C@H](NC(=O)[C@H](CCCNC(=N)N)NC(=O)[C@@H]1CCCN1C(=O)[C@@H]1CCCN1C(=O)[C@H](CC(C)C)NC(=O)[C@H](CCCNC(=N)N)NC(=O)[C@@H]1CCCN1C(=O)[C@@H]1CCCN1C(=O)[C@H](Cc1ccccc1)NC(=O)[C@H](Cc1ccccc1)NC(=O)[C@@H]1CCCN1C(=O)[C@@H]1CCCN1C(=O)[C@@H]1CCCN1C(=O)[C@H](CCCNC(=N)N)NC(=O)[C@@H]1CCCN1C(=O)[C@H](CCCNC(=N)N)NC(=O)[C@@H]1CCCN1C(=O)[C@H](CC(C)C)NC(=O)[C@H](Cc1ccc(O)cc1)NC(=O)[C@@H]1CCCN1C(=O)[C@@H]1CCCN1C(=O)[C@H](CCCNC(=N)N)NC(=O)[C@@H]1CCCN1C(=O)[C@H](CCCNC(=N)N)NC(=O)[C@H](CCCNC(=N)N)NC(=O)[C@@H](N)CCCNC(=N)N)C(=O)N1CCC[C@H]1C(=O)N1CCC[C@H]1C(=O)NCC(=O)N[C@@H](Cc1ccccc1)C(=O)N1CCC[C@H]1C(=O)N1CCC[C@H]1C(=O)N[C@@H](CCCNC(=N)N)C(=O)N[C@@H](Cc1ccccc1)C(=O)N1CCC[C@H]1C(=O)N1CCC[C@H]1C(=O)N[C@@H](CCCNC(=N)N)C(=O)N[C@@H](Cc1ccccc1)C(=O)N1CCC[C@H]1C(=O)O [PR-39] (H-RRRPRPPYLPRPRPPPFFPPRLPPRIPPGFPPRFPPRFP-OH; N-terminus and C-terminus assumed)
[1]
  pIC50: ~5.70
[1]; cell-free assay, concentrations greater than 5 μM
  inhibition of O2- generation: completely inhibited
Recombinant p47^phox; tenfold excess of unlabeled peptide
  inhibition of binding of biotinylated PR-39 to recombinant p47phox: completely blocked
Recombinant p47^phox; unlabeled peptide 0.06 μM, equimolar to labeled
  inhibition of binding of biotinylated PR-39 to recombinant p47phox: 90%
[2]
  blocking of interaction between GST-p47phox and recombinant p22phox: effectively blocked
[3]
  binding to 47 kDa cytosolic protein: bound
Staphylococcus aureus
  MIC: >250 µM
Salmonella typhimurium
  MBC: 4 µM (≈ 18.9 µg/mL)
  MIC: 4 µM (≈ 18.9 µg/mL)
Streptococcus suis
  MBC: >64 µM
  MIC: >64 µM
Escherichia coli, 25922
  MBC: 8 µM (≈ 37.8 µg/mL)
  MIC: 4 µM (≈ 18.9 µg/mL)
[4]
  concentration at which cytotoxicity occurred: 500 nM
E. coli, ATCC 25922
  antibacterial activity (clear zones on overlaid gel): antibacterial activity
[5]
  binding to 47 kDa cytosolic protein: bound

Source: patent US7049396B2, “Synthetic peptides that inhibit leukocyte superoxide anion production and/or attract leukocytes” (priority 1995, dated 2006)
